Experimental data published in PubChem BioAssay AID179 (DTP/NCI, 2004).
pEC50, pIC50: −log10 of the molar value. Values joined by “and” are separate entries in the source; they are usually repeats but may differ in a detail not shown here. Equal entries are not always repeated. Active and inactive are the calls of the source.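 The calls were made as follows: active = compounds giving half or more protection of infected cells from virus-caused growth loss, again on retest; inactive = the rest.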

Tested on: CEM cells HIV-1 protection, formazan growth assay
Assay: NCI AIDS Antiviral Assay
Conditions: for pIC50: measured here: growth of uninfected CEM cells
In short: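 Screen of anti-HIV-1 activity in human CEM cells using a formazan-based growth measurement at five drug concentrations. Hits with 50% or greater protection were repeated, and confirmation required reproducible complete protection.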

SMILES	outcome	pEC50	pIC50
CCc1cccc(C)c1N1C(=O)C(=O)C(c2nc3ccccc3o2)/C(=N/NC(=S)NN)C1=O (configuration not stated)	inactive	–	–
CCCCCCCCCCCCN1[C@H]2CCC[C@H]2C(O)[C@@H]2CCC[C@@H]21 (some centres not stated)	–	< 3.70	5.31
c1ccc(C2C3=C(CCCC3)Nc3nc4cc5ccccc5cc4n32)cc1 (configuration not stated)	–	< 3.70	< 3.70
CC(C)=CC1CCc2ccccc2N1S(=O)(=O)c1ccc(C)cc1 (configuration not stated)	–	< 4.60	5.88
COc1ccc2c(c1)CC[C@@H]1[C@@H]2CC[C@]2(C)/C(=N/OCCN3CCCCC3)CC[C@@H]12	–	< 4.70	5.50
CCN(CC)CCCNc1nccc2c(C)c3[nH]c4ccncc4c(=O)c3cc12	–	< 3.76	5.97
O=C(C(/C=N\C(=S)Nc1ccccc1Cl)=C(/O)c1ccccc1)c1ccccc1	–	< 3.70	4.92
Cc1cc(N(CCC#N)S(=O)(=O)c2ccccc2)ccc1C=O	–	< 3.96	< 3.96
OCC(O)c1cc(I)c(Oc2ccc(O)cc2)c(I)c1 (configuration not stated)	–	< 3.70	< 3.70
O=S(=O)([O-])c1ccc(C=Nc2ccccc2)c([O-])c1.O=S(=O)([O-])c1ccc(C=Nc2ccccc2)c([O-])c1.[Co+2]	–	< 3.39	4.02
CC(C)S(=O)(=O)n1c(N)nc2ccc(/C(=N/O)c3ccccc3)cc21	–	5.30	5.01
O/N=C/c1cc(I)cc(I)c1O	–	< 4.18	4.47
O=c1c2ccccc2oc2ccccc12	–	< 4.58	< 4.58
CC(C)OP(=O)(OC(C)C)C([CH2][Sn]([CH3])([CH3])[Cl])P(=O)(c1ccccc1)c1ccccc1 (configuration not stated)	–	< 3.70	5.54
O=c1c(/C=N/OCCCCO/N=C/c2cc3c(cc2[N+](=O)[O-])OCO3)coc2c(Cl)cc(Cl)cc12	–	< 3.70	4.12
Cn1cc(N)cc1C(=O)Nc1cc(C(=O)Nc2ccc3cc(S(=O)(=O)O)cc(S(=O)(=O)O)c3c2)n(C)c1	–	4.44	3.50
CC12CCC3=C(CSC4=C3CSc3ccccc34)C1=CCCC2=O (configuration not stated)	–	< 3.70	< 3.70
COc1ccccc1S(=O)(=O)Sc1ccccc1[N+](=O)[O-]	–	< 4.09	4.59
Cc1ccc(NC2=CC(=O)C(=O)c3ccccc32)cc1	–	< 4.56	4.69
CC(=O)[CH-]C(C)=O.CC(=O)[CH-]C(C)=O.N=CC=N.[Sn+2]	–	< 4.16	5.84
COc1ccc(CNc2nc3ccccc3nc2C(=O)O)cc1OC	–	< 3.70	4.02

SMILES	outcome	pEC50	pIC50
CC(=O)OC1OC(=O)C(C)(C(C)=O)C1C (configuration not stated)	inactive	–	–
Cc1cc(Cl)cc(S)c1S(=O)(=O)Nc1nnc2c3ccccc3cnn12	–	4.11	< 3.70
O=C(/N=C1/OC(CN2CCOCC2)CN1C(=O)Nc1ccccc1)Nc1ccccc1 (configuration not stated)	–	< 3.70	< 3.70
O=C1/C(=C/c2ccccc2[N+](=O)[O-])CCCc2ccccc21	–	< 3.70	4.46
Cc1cn(C2CCC(/C=N\O)O2)c(=O)[nH]c1=O (configuration not stated)	–	< 3.70	< 3.70
Cc1ccc(N=NC2Sc3nc4ccccc4n3C2=O)cc1 (configuration not stated)	–	< 3.70	< 3.70
C/C=C/C=Nc1c(C#N)c2n(c1C(=O)Nc1ccccc1)CCC2	–	< 4.00	< 4.00
O=S(c1ccccc1)C1CC2CC3(CCC21O)OCCO3 (configuration not stated)	–	< 3.70	< 3.70
C1CNCCNCCN1	–	< 3.70	< 3.70
COc1ccc(CCN2CCOCC2)cc1	–	< 3.70	< 3.70
CC(C)(C)C1=CC(=N/N=c2\scc(-c3ccccc3)n2-c2ccccc2)C=C(C(C)(C)C)C1=O	–	< 4.82	< 4.82
CCCCCCCCCCCCCCCC(=O)Nc1ccn(C2CCC(COP(=O)(O)OCC(COP(=O)(O)OCC3OC(n4cc(C)c(=O)[nH]c4=O)CC3N=[N+]=[N-])OC(=O)CCCCCCCCCCCCCCC)O2)c(=O)n1 (configuration not stated)	–	7.74	4.30
CC1=C(c2cc(C(=O)Nc3ccc(Cl)c(Cl)c3)nc(N)n2)Sc2ccccc2N1	–	< 4.09	< 4.09
COc1ccc(C2C(Cl)C(=O)N2NC(=O)c2ccccc2O)cc1OC (configuration not stated)	–	< 4.30	4.38
C=CCCCCO/N=C/c1c2c(O)c3c(O)c(C)c4c(c3c1O)C(=O)C(C)(O/C=C/C(OC)C(C)C(OC(C)=O)C(C)C(O)C(C)C(O)C(C)/C=C/C=C(\C)C(=O)N2)O4 (configuration not stated)	–	< 3.70	5.13
O=c1oc2ccccc2c2nc3ccccc3cc12	inactive	–	–
N#Cc1c(N)n(-c2nc3ccccc3s2)c(=O)c2cc([N+](=O)[O-])ccc12	–	< 4.00	4.92
CCCCCCCCCCCCCCCCCC(=O)OCC(CN(C)CCN(C)C)OC(=O)CCCCCCCCCCCCCCCCC (configuration not stated)	inactive	–	–
CCOc1ccc2nc(NC(=O)CC(C)=O)sc2c1	–	< 3.70	4.56
CC[n+]1[b-](C(C)(C)C)n(/N=C(\C)C(C)(C)C)[b-](C(C)(C)C)[n+]1CC	–	< 3.70	4.50
O=C1CCCC1(CCSc1ccccc1)C(CCCl)Sc1ccccc1 (configuration not stated)	–	< 5.05	< 5.05

SMILES	outcome	pEC50	pIC50
OC1/C(=C/c2ccccc2)CNC/C1=C\c1ccccc1 (configuration not stated)	–	< 3.89	4.10
COc1ccc2c(c1OC)CN(C)CCc1cc3c(cc1C(=O)C2)OCO3	–	< 3.45	3.54
CCN(CC)C(=S)SS(=O)(=O)c1ccccc1[N+](=O)[O-]	–	< 3.70	5.14
O=C(OC1CCCCC1)c1cc(NC(=S)c2ccsc2)ccc1Cl	–	6.85	4.95
COC1c2ccccc2CC(c2ccccc2)=NN1C(C)=O (configuration not stated)	–	< 4.05	4.29
COc1ccc(C(=O)C2COC(=O)C2=O)cc1OC (configuration not stated)	–	< 3.70	< 3.70
O=C(Oc1ccc(OC(Oc2ccccc2)c2ccccc2)cc1)c1ccccc1 (configuration not stated)	–	< 3.70	4.35
Cc1cc(C)[s+]s1	–	< 3.70	3.95 and 3.74
COc1ccc(C2c3cc4c(cc3OC(NNS(=O)(=O)c3ccc(C)cc3)C2C)OCO4)cc1 (configuration not stated)	–	< 3.70	4.58
c1ccc(-c2sc(-c3ccccc3)c3c2C(c2ccccc2)c2c(-c4ccccc4)sc(-c4ccccc4)c2C3c2ccccc2)cc1 (configuration not stated)	inactive	–	–
COc1c2c(cc3nc4ccccc4nc13)CCC(C(C)(C)O)C2 (configuration not stated)	inactive	–	–
COc1cc(C=Nc2ccc(C(C)C)cc2)cc(OC)c1OC	–	< 4.78	< 4.78
CC(C)(C)C(=O)N1C(C(=O)O)Cc2ccccc2[C@@H]1Cc1ccccc1 (some centres not stated)	–	< 4.13	< 4.13
Cc1ccc2c(c1)C(C1Cc3cccc(C)c3C1=O)OC2=O (configuration not stated)	–	< 3.70	< 3.70
COc1ccc2c(c1)C(=O)/C(=C/c1ccccc1)C2	–	< 3.70	4.32
CC(C)(C)[Si](C)(C)OC1C(C/[N+]([O-])=N\Nc2ccc([N+](=O)[O-])cc2)OC(n2ccc(=O)[nH]c2=O)C1O[Si](C)(C)C(C)(C)C (configuration not stated)	–	< 3.70	5.71
CCOC(=O)C(N)CSC(=O)NC (configuration not stated)	–	< 2.99	4.06
C[C@@]1(CO)OC(=O)N2CCC[C@H]21	–	< 2.84	< 2.84
CC(C)CCC[C@@H](C)C1CCC2[C@@H]3CC=C4C[C@@H](C(=O)NCC[N+](C)(C)CCCS(=O)(=O)[O-])CC[C@]4(C)C3CC[C@@]21C (some centres not stated)	inactive	–	–
O=C(NNC(=O)c1cc2ccccc2[nH]1)c1cc2ccccc2[nH]1	–	< 3.70	< 3.70
